Tests used:
Type in all cases: functional
[1] = test system: HL-60(TB); assay: Growth inhibition of human HL-60(TB) cells assessed as cell growth at 10^-7 M by sulforhodamine B assay; details: read-out: Activity
[2] = test system: CAKI-1; assay: Growth inhibition of human CAKI-1 cells assessed as cell growth at 10^-4 M by sulforhodamine B assay; details: read-out: Activity
[3] = test system: A549; assay: Growth inhibition of human A549/ATCC cells assessed as cell growth at 10^-6 M by sulforhodamine B assay; details: read-out: Activity
[4] = test system: SK-MEL-2; assay: Growth inhibition of human SK-MEL-2 cells assessed as cell growth at 10^-7 M by sulforhodamine B assay; details: read-out: Activity
[5] = test system: ACHN; assay: Growth inhibition of human ACHN cells by sulforhodamine B assay
[6] = test system: MDA-MB-231; assay: Growth inhibition of human MDA-MB-231 cells assessed as cell growth at 10^-7 M by sulforhodamine B assay; details: read-out: Activity
[7] = test system: Malme-3M; assay: Growth inhibition of human MALME-3M cells by sulforhodamine B assay
[8] = test system: TK-10; assay: Growth inhibition of human TK10 cells assessed as cell growth at 10^-6 M by sulforhodamine B assay; details: read-out: Activity
[9] = test system: CCRF-CEM; assay: Growth inhibition of human CCRF-CEM cells assessed as cell growth at 10^-7 M by sulforhodamine B assay; details: read-out: Activity
[10] = test system: CCRF-CEM; assay: Growth inhibition of human CCRF-CEM cells assessed as cell growth at 10^-4 M by sulforhodamine B assay; details: read-out: Activity
[11] = test system: SNB-75; assay: Growth inhibition of human SNB75 cells assessed as cell growth at 10^-8 M by sulforhodamine B assay; details: read-out: Activity
[12] = test system: T47D; assay: Growth inhibition of human T47D cells assessed as cell growth at 10^-6 M by sulforhodamine B assay; details: read-out: Activity
[13] = test system: RPMI-8226; assay: Growth inhibition of human RPMI8226 cells assessed as cell growth at 10^-6 M by sulforhodamine B assay; details: read-out: Activity
[14] = test system: HOP-62; assay: Growth inhibition of human HOP62 cells assessed as cell growth at 10^-8 M by sulforhodamine B assay; details: read-out: Activity
[15] = test system: SNB-75; assay: Growth inhibition of human SNB75 cells by sulforhodamine B assay
[16] = test system: COLO 205; assay: Growth inhibition of human COLO205 cells by sulforhodamine B assay
[17] = test system: M14; assay: Growth inhibition of human M14 cells assessed as cell growth at 10^-7 M by sulforhodamine B assay; details: read-out: Activity
[18] = test system: SNB-75; assay: Growth inhibition of human SNB75 cells assessed as cell growth at 10^-7 M by sulforhodamine B assay; details: read-out: Activity
[19] = test system: OVCAR-5; assay: Growth inhibition of human OVCAR5 cells assessed as cell growth at 10^-4 M by sulforhodamine B assay; details: read-out: Activity
[20] = test system: 786-0; assay: Growth inhibition of human 786-0 cells assessed as cell growth at 10^-7 M by sulforhodamine B assay; details: read-out: Activity
[21] = test system: SN12C; assay: Growth inhibition of human SN12C cells assessed as cell growth at 10^-8 M by sulforhodamine B assay; details: read-out: Activity
[22] = test system: HOP-92; assay: Growth inhibition of human HOP92 cells assessed as cell growth at 10^-8 M by sulforhodamine B assay; details: read-out: Activity
[23] = test system: SF-539; assay: Growth inhibition of human SF539 cells by sulforhodamine B assay
[24] = test system: M14; assay: Growth inhibition of human M14 cells assessed as cell growth at 10^-6 M by sulforhodamine B assay; details: read-out: Activity
[25] = test system: SNB-19; assay: Growth inhibition of human SNB19 cells assessed as cell growth at 10^-7 M by sulforhodamine B assay; details: read-out: Activity
[26] = test system: NCI-H460; assay: Growth inhibition of human NCI-H460 cells assessed as cell growth at 10^-6 M by sulforhodamine B assay; details: read-out: Activity
[27] = test system: M14; assay: Growth inhibition of human M14 cells assessed as cell growth at 10^-4 M by sulforhodamine B assay; details: read-out: Activity
[28] = test system: UO-31; assay: Growth inhibition of human UO31 cells assessed as cell growth at 10^-7 M by sulforhodamine B assay; details: read-out: Activity
[29] = test system: MDA-MB-435; assay: Growth inhibition of human MDA-MB-435 cells by sulforhodamine B assay
[30] = test system: PC-3; assay: Growth inhibition of human PC3 cells assessed as cell growth at 10^-8 M by sulforhodamine B assay; details: read-out: Activity
[31] = test system: OVCAR-8; assay: Growth inhibition of human OVCAR8 cells assessed as cell growth at 10^-7 M by sulforhodamine B assay; details: read-out: Activity
[32] = test system: UACC-257; assay: Growth inhibition of human UACC257 cells assessed as cell growth at 10^-8 M by sulforhodamine B assay; details: read-out: Activity
[33] = test system: SK-MEL-5; assay: Growth inhibition of human SK-MEL-5 cells assessed as cell growth at 10^-7 M by sulforhodamine B assay; details: read-out: Activity
[34] = test system: LOX IMVI; assay: Growth inhibition of human LOXIMVI cells by sulforhodamine B assay
[35] = test system: U-251; assay: Growth inhibition of human U251 cells assessed as cell growth at 10^-4 M by sulforhodamine B assay; details: read-out: Activity
[36] = test system: MCF7; assay: Growth inhibition of human MCF7 cells assessed as cell growth at 10^-7 M by sulforhodamine B assay; details: read-out: Activity
[37] = test system: OVCAR-5; assay: Growth inhibition of human OVCAR5 cells assessed as cell growth at 10^-6 M by sulforhodamine B assay; details: read-out: Activity
[38] = test system: NCI-H460; assay: Growth inhibition of human NCI-H460 cells assessed as cell growth at 10^-8 M by sulforhodamine B assay; details: read-out: Activity
[39] = test system: NCI-H522; assay: Growth inhibition of human NCI-H522 cells assessed as cell growth at 10^-7 M by sulforhodamine B assay; details: read-out: Activity
[40] = test system: UACC-62; assay: Growth inhibition of human UACC62 cells assessed as cell growth at 10^-8 M by sulforhodamine B assay; details: read-out: Activity
[41] = test system: COLO 205; assay: Growth inhibition of human COLO205 cells assessed as cell growth at 10^-7 M by sulforhodamine B assay; details: read-out: Activity
[42] = read-out: LC50 (the source's name)
[43] = read-out: pLC50 (the source's name) (converted)

**Q.** Which results are given for `CC1(C)C[C@@H](O)[C@]2(C(=O)O)CC[C@]3(C)C(=CC[C@@H]4[C@@]5(C)C/C(=C\C=C\c6ccccc6)C(=O)C(C)(C)[C@@H]5CC[C@]43C)[C@@H]2C1`?
**A.** growth at 0.1 µM [1]: 108%; growth at 100 µM [2]: -49%; growth at 1 µM [3]: 88%; growth at 0.1 µM [4]: 91%; GI50 ([5]; read-out: GI50): 3.65 µM; CC50 [5, 42]: 39.2 µM; TGI ([5]; read-out: TGI): 13.3 µM; GI50 ([5]; read-out: pGI50 (converted)): 3.63 µM; CC50 [5, 43]: 38.9 µM; TGI ([5]; read-out: pTGI (converted)): 13.2 µM; growth at 0.1 µM [6]: 102%; GI50 ([7]; read-out: GI50): 2.57 µM; CC50 [7, 42]: 59.2 µM; TGI ([7]; read-out: TGI): 7.23 µM; GI50 ([7]; read-out: pGI50 (converted)): 2.57 µM; CC50 [7, 43]: 58.9 µM; TGI ([7]; read-out: pTGI (converted)): 7.24 µM; growth at 1 µM [8]: 102%; growth at 0.1 µM [9]: 102%; growth at 100 µM [10]: -19%; growth at 0.01 µM [11]: 89%; growth at 1 µM [12]: 97%; growth at 1 µM [13]: 92%; growth at 0.01 µM [14]: 93%; GI50 ([15]; read-out: GI50): 4.27 µM; CC50 [15, 42]: 63.7 µM; TGI ([15]; read-out: TGI): 20.9 µM; GI50 ([15]; read-out: pGI50 (converted)): 4.27 µM; CC50 [15, 43]: 63.1 µM; TGI ([15]; read-out: pTGI (converted)): 20.9 µM; GI50 ([16]; read-out: GI50): 1.97 µM; LC50 ([16]; read-out: LC50): 6.36 µM; TGI ([16]; read-out: TGI): 3.54 µM; GI50 ([16]; read-out: pGI50 (converted)): 2 µM; LC50 ([16]; read-out: pLC50 (converted)): 6.31 µM; TGI ([16]; read-out: pTGI (converted)): 3.55 µM; growth at 0.1 µM [17]: 95%; growth at 0.1 µM [18]: 89%; growth at 100 µM [19]: -97%; growth at 0.1 µM [20]: 100%; growth at 0.01 µM [21]: 98%; growth at 0.01 µM [22]: 99%; GI50 ([23]; read-out: GI50): 2.86 µM; CC50 [23, 42]: 36.7 µM; TGI ([23]; read-out: TGI): 10.6 µM; GI50 ([23]; read-out: pGI50 (converted)): 2.88 µM; CC50 [23, 43]: 36.3 µM; TGI ([23]; read-out: pTGI (converted)): 10.7 µM; growth at 1 µM [24]: 91%; growth at 0.1 µM [25]: 89%; growth at 1 µM [26]: 97%; growth at 100 µM [27]: -77%; growth at 0.1 µM [28]: 94%; GI50 ([29]; read-out: GI50): 3.28 µM; CC50 [29, 42]: > 100 µM; TGI ([29]; read-out: TGI): 14.4 µM; GI50 ([29]; read-out: pGI50 (converted)): 3.31 µM; CC50 [29, 43]: > 100 µM; TGI ([29]; read-out: pTGI (converted)): 14.5 µM; growth at 0.01 µM [30]: 97%; growth at 0.1 µM [31]: 97%; growth at 0.01 µM [32]: 93%; growth at 0.1 µM [33]: 95%; GI50 ([34]; read-out: GI50): 1.9 µM; CC50 [34, 42]: 6.68 µM; TGI ([34]; read-out: TGI): 3.56 µM; GI50 ([34]; read-out: pGI50 (converted)): 1.91 µM; CC50 [34, 43]: 6.61 µM; TGI ([34]; read-out: pTGI (converted)): 3.55 µM; growth at 100 µM [35]: -79%; growth at 0.1 µM [36]: 92%; growth at 1 µM [37]: 93%; growth at 0.01 µM [38]: 102%; growth at 0.1 µM [39]: 94%; growth at 0.01 µM [40]: 96%; growth at 0.1 µM [41]: 100%

Source: ChEMBL document CHEMBL2413072, “Synthesis and in vitro anticancer studies of novel C-2 arylidene congeners of lantadenes” (2013)
